Values belong to the compound of their own block, whether it stands above or below them.
Assays:
Jurkat = experiment: Antiproliferative activity against human Jurkat cells assessed as reduction in cell viability incubated for 72 hrs by CCK-8 assay; assay type: functional, cell-based
[1] = Inhibition of hedgehog in […] cells; assay type: cell-based
RAW264.7 = experiment: Anti-inflammatory activity in mouse RAW264.7 cells assessed as inhibition of LPS-induced NO production incubated for 24 hrs by Griess reagent based analysis; assay type: functional, cell-based; conditions: RAW264.7, 24 h
HCT-116 = experiment: Cytotoxicity against human HCT-116 cells assessed as reduction in cell growth incubated for 72 hrs by CCK-8 assay; assay type: functional, cell-based; conditions: HCT-116, 72 h

IC50 (Jurkat): 0.25 µM
Compound: CC1=C(O)C(=O)C=C2C1=CC=C1[C@@]2(C)CC[C@@]2(C)[C@@H]3C[C@](C)(C(=O)NCCOCCNc4cccc5c4C(=O)N(C4CCC(=O)NC4=O)C5=O)CC[C@]3(C)CC[C@@]12C (some centres undefined)

IC50 [1]: 6.21 µM
Compound: COCCOC(=O)C1=C(c2cccc(OCc3cn(CCCCCCOc4cccc5c4C(=O)N(C4CCC(=O)NC4=O)C5=O)nn3)c2)C2=C(CC(c3ccccc3OC)CC2=O)NC1C (centres undefined)

IC50 (RAW264.7): 8.34 µM
Compound: C=C1CCC2C(/C=C(\C)C(=O)[C@@]3(O)C[C@H](C)[C@H](O)C3[C@H]1OCc1cn(CCOCCOCCOCCNc3cccc4c3C(=O)N(C3CCC(=O)NC3=O)C4=O)nn1)C2(C)C (some centres undefined)

Compound: CN1c2ccc(F)cc2C(=O)N2CCc3c([nH]c4ccc(OCCCNC(=O)CCCCCC#Cc5cccc6c5CN(C5CCC(=O)NC5=O)C6=O)cc34)C21 (centres undefined)
IC50 (HCT-116): 0.02 µM

— ChEMBL document CHEMBL6120937, “PROTAC technology: From drug development to probe technology for target deconvolution” (Eur J Med Chem, 2024)
